Results published in ChEMBL document CHEMBL6083210, “Exploring apoptotic induction of malabaricone A in triple-negative breast cancer cells: an acylphenol phyto-entity isolated from the fruit rind of Myristica malabarica Lam” (RSC Med Chem, 2024).

Columns and labels:
Assay type in all cases: functional, cell-based
SK-BR-3 = test: Antiproliferative activity against human SK-BR-3 cells assessed as reduction in cell viability incubated for 24 hrs by MTT assay; details: SK-BR-3, 24 h
MDA-MB-231 = test: Antiproliferative activity against human MDA-MB-231 cells assessed as reduction in cell viability incubated for 24 hrs by MTT assay; details: MDA-MB-231, 24 h
MCF-10A = test: Antiproliferative activity against human MCF-10A cells assessed as reduction in cell viability incubated for 24 hrs by MTT assay

IC50 (SK-BR-3): 9.3 µM
IC50 (MDA-MB-231): 15.1 µM
Compound: O=C(CCCCCCCCc1ccc2c(c1)OCO2)c1c(O)cccc1O
IC50 (MCF-10A): 82.6 µM
